# Laboratory results from patent US20090118258A1, “COMBINATION THERAPY COMPRISING ANGIOTENSIN CONVERTING ENZYME INHIBITORS AND VASOPRESSIN RECEPTOR ANTAGONISTS” (priority 2007, published 2009).
# Tests used:
# [1] = tested on: streptozotocin-induced diabetic rat; assay: Streptozotocin-induced diabetic rat model of nephropathy; assay type: in vivo
# Method: The streptozotocin-induced diabetic rat is a model of Type I diabetes that develops early renal dysfunction manifested as increased urine albumin excretion. One week after administration of streptozotocin, 65 mg/kg, i.p., rats were assigned to the following treatment groups: no treatment; Compound 1 at 30 mg/kg/d; or enalapril at 30 mg/kg/d. Both compounds were dosed in drinking water for 12 weeks. Mortality among the treatment groups at 12 weeks was 1/10 in the untreated and Compound 1-treated groups and 3/10 in the enalapril-treated group. As a result of the diabetic state, urine volumes were nearly 10 times that of non-diabetic rats. […] The fraction of filtered sodium and potassium excreted was unaffected by either Compound 1 and enalapril.
# rat remnant kidney model [2] = assay: Water intake and diuresis in remnant kidney model; assay type: in vivo; details: mean ± S.E.
# Method: Treatments were started 21 days after RMR, when animals already had overt nephropathy. […] All compounds were administered in drinking water. An additional sham-operated untreated group was also included. Measurements were made at 21 d after RMR but before treatment, and at one and two months of treatment. […] Since the increased mortality was not dose dependent and was not apparent in the group receiving combination treatment with Compound 1 and enalapril (Table 1), the effect is likely due to chance and the known variability in the severity of renal failure in this model.
# (§1) Water intake and diuresis was increased in all treatment groups following RMR (Table 2). […] There were no differences in serum electrolytes in any of the treatment groups at the termination of the experiment (Table 2).
# db/db mice = assay type: in vivo
# Method: Male db/db mice, a genetic model of type 2 diabetes, develop early renal dysfunction manifested as increased urine albumin excretion. At 9 weeks of age diabetes was confirmed by measurement of blood glucose (>300 mg/dL) and animals assigned to one of three treatment groups (n=12/group): untreated, Compound 1, 30 mg/kg/d and enalapril, 30 mg/kg/d. Compounds were dosed in drinking water for 16 weeks. There was no mortality in any of the treatment groups. Body weights for animals were similar at the beginning of the study.
# rat remnant kidney model [3] = assay: Blood pressure in rat remnant kidney model; assay type: in vivo; details: Compound 1 10 and 30 mg/kg/d; enalapril; combination enalapril + Compound 1 30 mg/kg/d; FIG. 3
# Method: (§2) Treatments were started 21 days after RMR, when animals already had overt nephropathy. Treatment groups (n=8/group, except enalapril n=7) included vehicle; Compound 1 at 10 mg/kg/d; Compound 1 at 30 mg/kg/d; enalapril at 15 mg/mL (in drinking water); and enalapril at 15 mg/mL+Compound 1 at 30 mg/kg/d. All compounds were administered in drinking water. An additional sham-operated untreated group was also included. Measurements were made at 21 d after RMR but before treatment, and at one and two months of treatment. […] Since the increased mortality was not dose dependent and was not apparent in the group receiving combination treatment with Compound 1 and enalapril (Table 1), the effect is likely due to chance and the known variability in the severity of renal failure in this model.
# Blood pressure reduction can contribute to slowing the progression of renal disease in this animal model as well as in humans.
# rat remnant kidney model [4] = assay: Rat remnant kidney model of nephropathy (renal mass reduction, RMR); assay type: in vivo; details: for Mortality rate: enalapril in drinking water, dead/total
# Source text: The rat remnant kidney model is an animal model of severe progressive renal failure. In this model, a state of severe progressive renal failure is produced by renal mass reduction (RMR) through removal of one kidney and ligation of several branches of the renal artery, resulting in infarction and loss of function of two thirds of the remaining kidney. The procedure creates the conditions of severe hypertension, proteinuria, progressive renal function deterioration, tubulointerstitial damage and glomerulosclerosis (Olson J L, Hostetter T H, Rennke H G, Brenner B M, Venkatachalam M A: “Altered glomerular permselectivity and progressive sclerosis following extreme ablation of renal mass”. Kidney Int 22:112-126, 1982).
# Nephropathy is evident as a progressively increasing amount of protein in urine, increases in serum creatinine and increases in arterial pressure. In addition, severe sclerosis of the glomeruli, inflammatory cell infiltration and tubular damage are measurable through histological analysis within 3 months of renal mass reduction (RMR). These measures form the basis for determining efficacy in the model. Urine protein, serum creatinine and arterial pressure are similarly measured in humans to determine impact of treatments on disease progression.
# The aim of this study was to evaluate the effects of Compound 1 compared to an ACE inhibitor (enalapril), as well as the combination treatment with Compound 1 and enalapril, on proteinuria and renal disease progression in this model. The effectiveness of these agents has been associated with reductions in proteinuria, slowing of the rate of rise in serum creatinine and reduction in glomerular sclerosis and thus slowing of the progression to end stage renal failure.
# as §2
# rat remnant kidney model [5] = assay: Serum and urine electrolytes in remnant kidney model; assay type: in vivo
# Method: as §2, §1
# Urinary Na excretion was reduced in the vehicle treated RMR rats. […] Urinary K and Cl excretion were reduced in rats with RMR compared to control rats.
# Type I diabetic rats = assay: Arterial pressure and heart rate in Type I diabetic rats after seven days oral administration; assay type: in vivo, rat; details: oral administration for seven days
# Method: Oral administration of Compound 1 for seven days in Type I diabetic rats had no effect on mean arterial pressure or heart rate over 48 h in diabetic rats. […] Oral administration of enalapril for seven days had no effect on arterial pressure over 48 h in diabetic rat
# [6] = 30 mg/kg/d in drinking water for 12 weeks
# [7] = 1 month of treatment, Enalapril 15 mg/L
# [8] = 2 month of treatment, Enalapril 15 mg/L
# [9] = basal (before RMR and treatment), group Enalapril 15 mg/L
# [10] = pre-treatment (21 d after RMR), group Enalapril 15 mg/L
# [11] = 1 and 2 months of treatment, Compound 1 10 and 30 mg/kg/d, enalapril 15 mg/mL, combination enalapril + Compound 1 30 mg/kg/d, FIG. 1
# [12] = both doses of Compound 1, enalapril alone, combination, reduced in RMR rats vs control
compound,measurement,setting,value
"CCOC(=O)[C@H](CCc1ccccc1)N[C@@H](C)C(=O)N1CCC[C@H]1C(=O)O [Enalapril, enalapril, reference compound]",fraction of filtered sodium and potassium excreted,[1]; [6],unaffected
same,"urine endpoints: daily volume output, osmolarity, chloride, creatinine, sodium or potassium concentrations, clearances or excretion values",[1]; [6],not significantly altered
same,Mortality at 12 weeks,"[1]; 30 mg/kg/d in drinking water for 12 weeks, dead/total, untreated 1/10",3/10
same,serum albumin concentrations,"[1]; 30 mg/kg/d, compared to vehicle treated controls","not statistically significant, serum albumin concentrations increased"
same,kidney weight or renal glomerular or mesangial morphology,"[1]; 30 mg/kg/d, compared to vehicle treated diabetic rats",no significant effects
same,diuresis,rat remnant kidney model [2]; [7],46 ± 4 mL/24 h
same,water intake,rat remnant kidney model [2]; [7],60 ± 4*° mL/24 h
same,diuresis,rat remnant kidney model [2]; [8],45 ± 3 mL/24 h
same,water intake,rat remnant kidney model [2]; [8],59 ± 6 mL/24 h
same,diuresis,rat remnant kidney model [2]; [9],19 ± 1 mL/24 h
same,water intake,rat remnant kidney model [2]; [9],44 ± 4 mL/24 h
same,diuresis,rat remnant kidney model [2]; [10],46 ± 5 mL/24 h
same,water intake,rat remnant kidney model [2]; [10],66 ± 6 mL/24 h
same,urinary albumin excretion (in words),"db/db mice; 30 mg/kg/d in drinking water for 16 weeks, FIG. 5",tended to reduce urine albumin excretion with significant differences observed at 2 weeks and 16 weeks compared to vehicle controls
same,mesangial surface area or percentage of glomerular area occupied by mesangium,"db/db mice; 30 mg/kg/d, compared to vehicle-treated animals",No significant differences
same,urine osmolarity,"db/db mice; 30 mg/kg/d, throughout 16 weeks of dosing",unaffected by treatment
same,albumin excretion in urine,"db/db mice; enalapril 30 mg/kg/d in drinking water, over 16 weeks, FIG. 5",≤ 500 ug/24 h
same,arterial pressure,rat remnant kidney model [3],significant reductions in arterial pressure compared to vehicle
same,serum creatinine,rat remnant kidney model [4]; [11],significantly reduced
same,urine protein,rat remnant kidney model [4]; [11],significantly reduced
same,Mortality rate,rat remnant kidney model [4]; 1 month of treatment,0/7
same,Mortality rate,rat remnant kidney model [4]; 2 month of treatment,1/7
same,number of ED 1 positive cells per field (monocytes/macrophages in renal interstitium),"rat remnant kidney model [4]; enalapril 15 mg/mL, termination, vehicle 63±4, statistically significant reduction",38±6 positive cells per field
same,percentage of sclerotic glomeruli,"rat remnant kidney model [4]; renal histology at termination, Compound 1 10 or 30 mg/kg/d, enalapril, combination enalapril + Compound 1 30 mg/kg/d, FIG. 2",significant reduction
same,urinary Na excretion,"rat remnant kidney model [5]; both doses of Compound 1 (10, 30 mg/kg/d), enalapril alone, combination, reduced in vehicle treated RMR rats",tended to normalize urinary Na excretion to similar extents
same,urinary Cl excretion,rat remnant kidney model [5]; [12],tended to normalize urinary K and Cl excretion
same,urinary K excretion,rat remnant kidney model [5]; [12],tended to normalize urinary K and Cl excretion
same,urine chloride ion (Cl−),rat remnant kidney model [5]; compared to vehicle group,significantly greater than those in the vehicle group
same,(mean) arterial pressure over 48 h,Type I diabetic rats,no effect
